Earlier results on three compounds are cited in US6489098B1, “Means and methods for monitoring nucleoside reverse transcriptase inhibitor antiretroviral therapy and guiding therapeutic decisions in the treatment of HIV/AIDS” (ViroLogic, Inc., priority 1998, dated 2002).

In data set [1] the test system is HIV with multiple ZDV resistance mutations. The settings on record: read-out: IC50 (high-level resistance); cited from earlier work.
Data set [2] concerns HIV isolates of 13 ZDV-naive patients. The settings on record: 13 ZDV-naive patients followed for 18 to 22 months on d4T; d4T maximum; ZDV five patients; ddI three subjects; cited from earlier work.
Data set [3] concerns HIV with RT Leu74→Val mutation. The settings on record: cited from earlier work.

Usually IC50 stands for the midpoint of a concentration-inhibition curve. With `Cc1cn([C@H]2C[C@H](N=[N+]=[N-])[C@@H](CO)O2)c(=O)[nH]c1=O` [AZT, zidovudine], the IC50 in data set [1] was > 1000 nM.

Consider `Cc1cn([C@H]2C=C[C@@H](CO)O2)c(=O)[nH]c1=O` [d4T, stavudine], for which, in data set [2], the “fold decrease in sensitivity” value was ≤ 12 fold.

Take `Nc1ccn([C@H]2CC[C@@H](CO)O2)c(=O)n1` [ddC, zalcitabine]: the “fold reduction in sensitivity” value in data set [3] is on record as “around ten-fold”.
